The values below are quoted from earlier work in US11364228B2 (Ovid Therapeutics Inc., priority 2019, dated 2022).

In series [1] the test system is sleep onset and sleep maintenance. The settings on record: three-month efficacy study, treatment of insomnia.
Series [2] deals with patients with a history of drug abuse. The settings on record: patients with a history of drug abuse who received gaboxadol.
The mark [3] stands for this setting: conventional pharmaceutical compositions such as tablets and capsules.

The half-life is the time needed for the level to fall by half in the phase considered. On to `Oc1noc2c1CCNC2` [Gaboxadol, 4,5,6,7-tetrahydroisoxazolo [5,4-c]pyridine-3-ol], for which, in series [1], the “effects in sleep onset and sleep maintenance” value is given as “failed to show significant effects”. For the same compound, under setting [3], the half-life is 1.5 to 2 h and the “time to reach peak concentration” value is ≤ 30 min. Moreover, the “half-life (t1/2)” value (plasma half-life post administration) is 1.5 to 2 h. Moreover, the psychiatric adverse events result in series [2] was “steep increase in psychiatric adverse events”.
